Test system: primary rat mixed cortical cells
Assay: In vitro myelination assay (MBP positive myelin strands, fold myelin pixels above background)
Assay type: cell-based
Settings: Rattus norvegicus, read-out: Fold myelin pixels above background relative to baseline of no added compound; for fold induction at 1 µM: 1.0 μM compound; for fold induction at 10 µM: 10.0 μM compound
Summary of the method: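 Read-out is total MBP-positive myelin strand pixels per well, detected by custom ridge-tracing software and reported as fold over untreated baseline. Primary P1 rat mixed cortical cells received compound (1.0 or 10.0 μM) for 14 days, with medium half-replaced on days 6 and 10. Standard deviation was taken across all replicates.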

Row | SMILES | fold induction at 1 µM | fold induction at 10 µM
1 | Cc1cc(Nc2ncn(-c3cc(F)cc(F)c3)n2)cc(NC2CCN(CCN3CCOCC3)C2)c1 (stereo not shown) [Compound 880, N3-[1-(3,5-difluorophenyl)-1,2,4-triazol-3-yl]-5-methyl-N1-[1-(2-morpholinoethyl)pyrrolidin-3-yl]benzene-1,3-diamine] | 1 to 10 | ≤ 1
2 | Cc1cc(Nc2ncn(-c3cc(F)cc(F)c3)n2)cc(NC2CN(C3COC3)C2)c1 [Compound 881, N3-[1-(3,5-difluorophenyl)-1,2,4-triazol-3-yl]-5-methyl-N1-[1-(oxetan-3-yl)azetidin-3-yl]benzene-1,3-diamine] | 10 to 100 | ≤ 1
3 | Cc1cc(NCC(C)N2CC(C)OC(C)C2)cc(Nc2ncn(-c3cc(F)cc(F)c3)n2)c1 (stereo not shown) [Compound 882, N1-[1-(3,5-difluorophenyl)-1,2,4-triazol-3-yl]-N3-[2-(2,6-dimethylmorpholin-4-yl)propyl]-5-methyl-benzene-1,3-diamine] | 1 to 10 | 1 to 10
4 | [2H]C1([2H])N(C(=O)C2CC2)C([2H])([2H])C([2H])([2H])N(c2cc(Nc3ncn(-c4cc(F)cc(F)c4)n3)cc(C(F)(F)F)c2)C1([2H])[2H] [Compound 883, cyclopropyl-[2,2,3,3,5,5,6,6-octadeuterio-4-[3-[[1-(3,5-difluorophenyl)-1,2,4-triazol-3-yl]amino]-5-(trifluoromethyl)phenyl]piperazin-1-yl]methanone] | 10 to 100 | 1 to 10
5 | Cc1cc(Nc2ncn(-c3cc(F)cc(F)c3)n2)cc(NC2CCOCC2N2CCCC2)c1 (stereo not shown) [Compound 884, N3-[1-(3,5-difluorophenyl)-1,2,4-triazol-3-yl]-5-methyl-N1-(3-pyrrolidin-1-yltetrahydropyran-4-yl)benzene-1,3-diamine] | 1 to 10 | ≤ 1
6 | [2H]C1([2H])N(CC2COCCO2)C([2H])([2H])C([2H])([2H])N(c2cc(C)cc(Nc3ncn(-c4cc(F)cc(F)c4)n3)c2)C1([2H])[2H] (stereo not shown) [Compound 885, 1-(3,5-difluorophenyl)-N-[3-methyl-5-[2,2,3,3,5,5,6,6-octadeuterio-4-(1,4-dioxan-2-ylmethyl)piperazin-1-yl]phenyl]-1,2,4-triazol-3-amine] | 10 to 100 | ≤ 1
7 | Cc1cc(Nc2ncn(-c3cc(F)cc(F)c3)n2)cc(NC2(C(=O)N(C)C)CCC2)c1 [Compound 887, 1-[3-[[1-(3,5-difluorophenyl)-1,2,4-triazol-3-yl]amino]-5-methyl-anilino]-N,N-dimethyl-cyclobutanecarboxamide] | 10 to 100 | 10 to 100
8 | Cc1cc(Nc2ncn(-c3cc(F)cc(F)c3)n2)cc(N2CCOC(C3CCCO3)C2)c1 (stereo not shown) [Compound 888, 1-(3,5-difluorophenyl)-N-[3-methyl-5-(2-tetrahydrofuran-2-ylmorpholin-4-yl)phenyl]-1,2,4-triazol-3-amine] | 1 to 10 | 1 to 10
9 | Cc1cc(Nc2ncn(-c3cc(F)cc(F)c3)n2)cc(N2CCN3CCC2C3)c1 (stereo not shown) [Compound 889, N-[3-(1,4-diazabicyclo[3.2.1]octan-4-yl)-5-methyl-phenyl]-1-(3,5-difluorophenyl)-1,2,4-triazol-3-amine] | 10 to 100 | ≤ 1
10 | Cc1cc(Nc2ncn(-c3cc(F)cc(F)c3)n2)cc(N2CC(C3CCOC3)C2)c1 (stereo not shown) [Compound 890, 1-(3,5-difluorophenyl)-N-[3-methyl-5-(3-tetrahydrofuran-3-ylazetidin-1-yl)phenyl]-1,2,4-triazol-3-amine] | 1 to 10 | 10 to 100
11 | Cc1cc(Nc2ncn(-c3cc(F)cc(F)c3)n2)cc(NC2CCN(CC3CCCO3)CC2)c1 (stereo not shown) [Compound 891, N3-[1-(3,5-difluorophenyl)-1,2,4-triazol-3-yl]-5-methyl-N1-[1-(tetrahydrofuran-2-ylmethyl)-4-piperidyl]benzene-1,3-diamine] | 1 to 10 | ≤ 1
12 | Cc1cc(Nc2ncn(-c3cc(F)cc(F)c3)n2)cc(N2CCN(C3CCCN(C)C3)CC2)c1 (stereo not shown) [Compound 892, 1-(3,5-difluorophenyl)-N-[3-methyl-5-[4-(1-methyl-3-piperidyl)piperazin-1-yl]phenyl]-1,2,4-triazol-3-amine] | 1 to 10 | ≤ 1
13 | CCN1CCOC(CNc2cc(C)cc(Nc3ncn(-c4cc(F)cc(F)c4)n3)c2)C1 (stereo not shown) [Compound 893, N3-[1-(3,5-difluorophenyl)-1,2,4-triazol-3-yl]-N1-[(4-ethylmorpholin-2-yl)methyl]-5-methyl-benzene-1,3-diamine] | 1 to 10 | ≤ 1
14 | COCCN1CCC(Nc2cc(C)cc(Nc3ncn(-c4cc(F)cc(F)c4)n3)c2)C1 (stereo not shown) [Compound 894, N3-[1-(3,5-difluorophenyl)-1,2,4-triazol-3-yl]-N1-[1-(2-methoxyethyl)pyrrolidin-3-yl]-5-methyl-benzene-1,3-diamine] | 10 to 100 | ≤ 1
15 | Cc1cc(NCC2CCCC2N2CCOCC2)cc(Nc2ncn(-c3cc(F)cc(F)c3)n2)c1 (stereo not shown) [Compound 895, N1-[1-(3,5-difluorophenyl)-1,2,4-triazol-3-yl]-5-methyl-N3-[(2-morpholinocyclopentyl)methyl]benzene-1,3-diamine] | 10 to 100 | 1 to 10
16 | COCCCN1CCCN(c2cc(C)cc(Nc3ncn(-c4cc(F)cc(F)c4)n3)c2)CC1 [Compound 896, 1-(3,5-difluorophenyl)-N-[3-[4-(3-methoxypropyl)-1,4-diazepan-1-yl]-5-methyl-phenyl]-1,2,4-triazol-3-amine] | 1 to 10 | 1 to 10
17 | CCN1CCCC(Nc2cc(C)cc(Nc3ncn(-c4cc(F)cc(F)c4)n3)c2)C1 (stereo not shown) [Compound 897, N3-[1-(3,5-difluorophenyl)-1,2,4-triazol-3-yl]-N1-(1-ethyl-3-piperidyl)-5-methyl-benzene-1,3-diamine] | 1 to 10 | ≤ 1
18 | [2H]C1(N2CCN(c3cc(C)cc(Nc4ncn(-c5ccccc5)n4)c3)CC2)COC1 [Compound 898, N-[3-[4-(3-deuteriooxetan-3-yl)piperazin-1-yl]-5-methyl-phenyl]-1-phenyl-1,2,4-triazol-3-amine] | 10 to 100 | ≤ 1
19 | Cc1cc(NCC(N2CCOCC2)C(F)(F)F)cc(Nc2ncn(-c3cc(F)cc(F)c3)n2)c1 (stereo not shown) [Compound 899, N1-[1-(3,5-difluorophenyl)-1,2,4-triazol-3-yl]-5-methyl-N3-(3,3,3-trifluoro-2-morpholino-propyl)benzene-1,3-diamine] | 1 to 10 | 1 to 10
20 | CCOCC(O)CN1CCN(c2cc(C)cc(Nc3ncn(-c4cc(F)cc(F)c4)n3)c2)CC1 (stereo not shown) [Compound 900, 1-[4-[3-[[1-(3,5-difluorophenyl)-1,2,4-triazol-3-yl]amino]-5-methyl-phenyl]piperazin-1-yl]-3-ethoxy-propan-2-ol] | 1 to 10 | ≤ 1
21 | Cc1cc(Nc2ncn(-c3cc(F)cc(F)c3)n2)cc(N2CCC3(CCO3)C2)c1 (stereo not shown) [Compound 901, 1-(3,5-difluorophenyl)-N-[3-methyl-5-(1-oxa-7-azaspiro[3.4]octan-7-yl)phenyl]-1,2,4-triazol-3-amine] | 1 to 10 | ≤ 1
22 | Cc1cc(Nc2ncn(-c3cc(F)cc(F)c3)n2)cc(N2CCN(CCO)C(C)C2)c1 (stereo not shown) [Compound 902, 2-[4-[3-[[1-(3,5-difluorophenyl)-1,2,4-triazol-3-yl]amino]-5-methyl-phenyl]-2-methyl-piperazin-1-yl]ethanol] | 1 to 10 | ≤ 1
23 | Cc1cc(NCC2CN(CC(C)C)CCO2)cc(Nc2ncn(-c3cc(F)cc(F)c3)n2)c1 (stereo not shown) [Compound 903, N1-[1-(3,5-difluorophenyl)-1,2,4-triazol-3-yl]-N3-[(4-isobutylmorpholin-2-yl)methyl]-5-methyl-benzene-1,3-diamine] | 10 to 100 | 1 to 10
24 | CCC(CO)N1CCN(c2cc(C)cc(Nc3ncn(-c4cc(F)cc(F)c4)n3)c2)CC1 (stereo not shown) [Compound 904, 2-[4-[3-[[1-(3,5-difluorophenyl)-1,2,4-triazol-3-yl]amino]-5-methyl-phenyl]piperazin-1-yl]butan-1-ol] | ≤ 1 | ≤ 1
25 | Cc1cc(Nc2ncn(-c3cc(F)cc(F)c3)n2)cc(N2CCN(C3CCCC3)C(=O)C2)c1 [Compound 905, 1-cyclopentyl-4-[3-[[1-(3,5-difluorophenyl)-1,2,4-triazol-3-yl]amino]-5-methyl-phenyl]piperazin-2-one] | 1 to 10 | 10 to 100
26 | Cc1cc(Nc2ncn(-c3cc(F)cc(F)c3)n2)cc(N2CCOC3(CCOCC3)CC2)c1 [Compound 906, 1-(3,5-difluorophenyl)-N-[3-(3,7-dioxa-10-azaspiro[5.6]dodecan-10-yl)-5-methyl-phenyl]-1,2,4-triazol-3-amine] | 10 to 100 | 1 to 10
27 | Cc1cc(Nc2ncn(-c3ccccc3)n2)c(F)c(OC2CCOC2)c1 (stereo not shown) [Compound 907, N-(2-fluoro-5-methyl-3-tetrahydrofuran-3-yloxy-phenyl)-1-phenyl-1,2,4-triazol-3-amine] | 10 to 100 | 100 to 1000
28 | Cc1cc(Nc2ncn(-c3ccccn3)n2)c(F)c(N2CCN(C3COC3)CC2)c1 [Compound 908, N-[2-fluoro-5-methyl-3-[4-(oxetan-3-yl)piperazin-1-yl]phenyl]-1-(2-pyridyl)-1,2,4-triazol-3-amine] | 1 to 10 | 10 to 100
29 | Cc1cc(OCC2COC2)cc(Nc2ncn(-c3cc(F)cc(F)c3)n2)c1C [Compound 909, 1-(3,5-difluorophenyl)-N-[2,3-dimethyl-5-(oxetan-3-ylmethoxy)phenyl]-1,2,4-triazol-3-amine] | 1 to 10 | 10 to 100

Source: US10766869B2, “Triazoles for the treatment of demyelinating dieases” (Vertex Pharmaceuticals Incorporated, priority 2015, dated 2020)
